Test results reported in ChEMBL document CHEMBL3352029, “Ring fusion strategy for the synthesis of anthra[2,3-d]oxazole-2-thione-5,10-dione homologues as DNA topoisomerase inhibitors and as antitumor agents” (Eur J Med Chem, 2014).

What was measured:
RXF 393 = test: Cytotoxicity against human RXF393 cells assessed as cell growth level at 10 uM after 48 hrs by sulforhodamine B assay; type: functional
NCI-H23 = test: Cytotoxicity against human NCI-H23 cells assessed as cell growth level at 10 uM after 48 hrs by sulforhodamine B assay; type: functional
CAKI-1 = test: Cytotoxicity against human CAKI-1 cells assessed as cell growth level at 10 uM after 48 hrs by sulforhodamine B assay; type: functional
HT-29 = test: Cytotoxicity against human HT-29 cells assessed as cell growth level at 10 uM after 48 hrs by sulforhodamine B assay; type: functional
T47D = test: Cytotoxicity against human T47D cells assessed as cell growth level at 10 uM after 48 hrs by sulforhodamine B assay; type: functional
[1] = Cytotoxicity against human UACC257 cells assessed as cell growth level at 10 uM after 48 hrs by sulforhodamine B assay; type: functional, UACC-257
[2] = Cytotoxicity against human OVCAR5 cells assessed as cell growth level at 10 uM after 48 hrs by sulforhodamine B assay; type: functional, OVCAR-5
HL-60(TB) = test: Cytotoxicity against human HL-60(TB) cells assessed as cell growth level at 10 uM after 48 hrs by sulforhodamine B assay; type: functional
[3] = Cytotoxicity against human NCI-ADR-RES cells assessed as cell growth level at 10 uM after 48 hrs by sulforhodamine B assay; type: functional
[4] = Cytotoxicity against human UACC62 cells assessed as cell growth level at 10 uM after 48 hrs by sulforhodamine B assay; type: functional, UACC-62
[5] = Cytotoxicity against human OVCAR4 cells assessed as cell growth level at 10 uM after 48 hrs by sulforhodamine B assay; type: functional, OVCAR-4
SF-268 = test: Cytotoxicity against human SF268 cells assessed as cell growth level at 10 uM after 48 hrs by sulforhodamine B assay; type: functional
NCI-H460 = test: Cytotoxicity against human NCI-H460 cells assessed as cell growth level at 10 uM after 48 hrs by sulforhodamine B assay; type: functional
U-251 = test: Cytotoxicity against human U251 cells assessed as cell growth level at 10 uM after 48 hrs by sulforhodamine B assay; type: functional
SK-MEL-28 = test: Cytotoxicity against human SK-MEL-28 cells assessed as cell growth level at 10 uM after 48 hrs by sulforhodamine B assay; type: functional
NCI-H226 = test: Cytotoxicity against human NCI-H226 cells assessed as cell growth level at 10 uM after 48 hrs by sulforhodamine B assay; type: functional
RPMI-8226 = test: Cytotoxicity against human RPMI8226 cells assessed as cell growth level at 10 uM after 48 hrs by sulforhodamine B assay; type: functional
SR = test: Cytotoxicity against human SR cells assessed as cell growth level at 10 uM after 48 hrs by sulforhodamine B assay; type: functional
M14 = test: Cytotoxicity against human M14 cells assessed as cell growth level at 10 uM after 48 hrs by sulforhodamine B assay; type: functional
SK-MEL-5 = test: Cytotoxicity against human SK-MEL-5 cells assessed as cell growth level at 10 uM after 48 hrs by sulforhodamine B assay; type: functional
K562 = test: Cytotoxicity against human K562 cells assessed as cell growth level at 10 uM after 48 hrs by sulforhodamine B assay; type: functional
[6] = Cytotoxicity against human Hs 578T cells assessed as cell growth level at 10 uM after 48 hrs by sulforhodamine B assay; type: functional
HOP-92 = test: Cytotoxicity against human HOP92 cells assessed as cell growth level at 10 uM after 48 hrs by sulforhodamine B assay; type: functional
MDA-MB-468 = test: Cytotoxicity against human MDA-MB-468 cells assessed as cell growth level at 10 uM after 48 hrs by sulforhodamine B assay; type: functional
SF-539 = test: Cytotoxicity against human SF539 cells assessed as cell growth level at 10 uM after 48 hrs by sulforhodamine B assay; type: functional
HCC 2998 = test: Cytotoxicity against human HCC2998 cells assessed as cell growth level at 10 uM after 48 hrs by sulforhodamine B assay; type: functional
786-0 = test: Cytotoxicity against human 786-0 cells assessed as cell growth level at 10 uM after 48 hrs by sulforhodamine B assay; type: functional
IGROV-1 = test: Cytotoxicity against human IGROV1 cells assessed as cell growth level at 10 uM after 48 hrs by sulforhodamine B assay; type: functional
MDA-MB-231 = test: Cytotoxicity against human MDA-MB-231 cells assessed as cell growth level at 10 uM after 48 hrs by sulforhodamine B assay; type: functional
[7] = Cytotoxicity against human OVCAR8 cells assessed as cell growth level at 10 uM after 48 hrs by sulforhodamine B assay; type: functional, OVCAR-8
TK-10 = test: Cytotoxicity against human TK10 cells assessed as cell growth level at 10 uM after 48 hrs by sulforhodamine B assay; type: functional
SW-620 = test: Cytotoxicity against human SW620 cells assessed as cell growth level at 10 uM after 48 hrs by sulforhodamine B assay; type: functional
A549 = test: Cytotoxicity against human A549/ATCC cells assessed as cell growth level at 10 uM after 48 hrs by sulforhodamine B assay; type: functional
LOX IMVI = test: Cytotoxicity against human LOXIMVI cells assessed as cell growth level at 10 uM after 48 hrs by sulforhodamine B assay; type: functional
COLO 205 = test: Cytotoxicity against human COLO205 cells assessed as cell growth level at 10 uM after 48 hrs by sulforhodamine B assay; type: functional
SNB-19 = test: Cytotoxicity against human SNB19 cells assessed as cell growth level at 10 uM after 48 hrs by sulforhodamine B assay; type: functional
DU-145 = test: Cytotoxicity against human DU145 cells assessed as cell growth level at 10 uM after 48 hrs by sulforhodamine B assay; type: functional
SN12C = test: Cytotoxicity against human SN12C cells assessed as cell growth level at 10 uM after 48 hrs by sulforhodamine B assay; type: functional
[8] = Cytotoxicity against human HCT15 cells assessed as cell growth level at 10 uM after 48 hrs by sulforhodamine B assay; type: functional, HCT-15
SF-295 = test: Cytotoxicity against human SF295 cells assessed as cell growth level at 10 uM after 48 hrs by sulforhodamine B assay; type: functional
[9] = Cytotoxicity against human SKOV3 cells assessed as cell growth level at 10 uM after 48 hrs by sulforhodamine B assay; type: functional, SK-OV-3
MCF7 = test: Cytotoxicity against human MCF7 cells assessed as cell growth level at 10 uM after 48 hrs by sulforhodamine B assay; type: functional
BT-549 = test: Cytotoxicity against human BT549 cells assessed as cell growth level at 10 uM after 48 hrs by sulforhodamine B assay; type: functional
[10] = Cytotoxicity against human UO31 cells assessed as cell growth level at 10 uM after 48 hrs by sulforhodamine B assay; type: functional, UO-31
NCI-H522 = test: Cytotoxicity against human NCI-H522 cells assessed as cell growth level at 10 uM after 48 hrs by sulforhodamine B assay; type: functional
KM12 = test: Cytotoxicity against human KM12 cells assessed as cell growth level at 10 uM after 48 hrs by sulforhodamine B assay; type: functional
MOLT-4 = test: Cytotoxicity against human MOLT4 cells assessed as cell growth level at 10 uM after 48 hrs by sulforhodamine B assay; type: functional

Compound `CCSc1nc2cc3c(cc2o1)C(=O)c1ccccc1C3=O` has an Activity (RXF 393) of 101%, an Activity (NCI-H23) of 90.76% and an Activity (CAKI-1) of 93.49%. For the same compound, the Activity (HT-29) was 89.08%, the Activity (T47D) was 96.02% and the Activity [1] was 92.45%. It also gave an Activity [2] of 104.57%, an Activity (HL-60(TB)) of 96.05% and an Activity [3] of 95.82%. For the same compound, the Activity [4] was 89.01%, the Activity [5] was 94.25% and the Activity (SF-268) was 102.22%. The Activity (NCI-H460) was 100.33%, the Activity (U-251) was 94% and the Activity (SK-MEL-28) was 92.36%. The Activity (NCI-H226) was 82.45%, the Activity (RPMI-8226) was 91.04% and the Activity (SR) was 92.53%. For the same compound, the Activity (M14) was 98.8%, the Activity (SK-MEL-5) was 100.35% and the Activity (K562) was 96.26%. The Activity [6] was 81.15%, the Activity (HOP-92) was 72.67% and the Activity (MDA-MB-468) was 88.73%. The Activity (SF-539) was 94.61%, the Activity (HCC 2998) was 101.65% and the Activity (786-0) was 99.33%. For the same compound, the Activity (IGROV-1) was 79.05%, the Activity (MDA-MB-231) was 90.66% and the Activity [7] was 92.46%. The Activity (TK-10) was 100.92%, the Activity (SW-620) was 91.86% and the Activity (A549) was 96.49%. It also gave an Activity (LOX IMVI) of 91%, an Activity (COLO 205) of 98.08% and an Activity (SNB-19) of 99.9%. The Activity (DU-145) was 107.71%, the Activity (SN12C) was 98.57% and the Activity [8] was 96.65%. For the same compound, the Activity (SF-295) was 92.06%, the Activity [9] was 90.67% and the Activity (MCF7) was 81.27%. It also gave an Activity (BT-549) of 114.59%, an Activity [10] of 57.94% and an Activity (NCI-H522) of 80.08%. For the same compound, the Activity (KM12) was 101.43% and the Activity (MOLT-4) was 101.76%.
`O=C1c2ccccc2C(=O)c2cc3oc(SCc4ccc(F)cc4)nc3cc21` showed an Activity (RXF 393) of 90.29%, an Activity (NCI-H23) of 90.64% and an Activity (CAKI-1) of 90.54%. For the same compound, the Activity (HT-29) was 91.18%, the Activity (T47D) was 102.69% and the Activity [1] was 98.94%. The Activity [2] was 94.94%, the Activity (HL-60(TB)) was 95.74% and the Activity [3] was 91.27%. It also gave an Activity [4] of 89.94%, an Activity [5] of 74.06% and an Activity (SF-268) of 103.49%. For the same compound, the Activity (NCI-H460) was 84.05%, the Activity (U-251) was 96.4% and the Activity (SK-MEL-28) was 98.54%. For the same compound, the Activity (NCI-H226) was 83.03%, the Activity (RPMI-8226) was 96.5% and the Activity (SR) was 85.14%. It also gave an Activity (M14) of 103.58%, an Activity (SK-MEL-5) of 97.58% and an Activity (K562) of 93.54%. The Activity [6] was 95.47%, the Activity (HOP-92) was 74.13% and the Activity (MDA-MB-468) was 90.68%. For the same compound, the Activity (SF-539) was 94.71%, the Activity (HCC 2998) was 108.69% and the Activity (786-0) was 98.08%. For the same compound, the Activity (IGROV-1) was 87.04%, the Activity (MDA-MB-231) was 103.32% and the Activity [7] was 94.89%. The Activity (TK-10) was 92.13%, the Activity (SW-620) was 100.32% and the Activity (A549) was 83.66%. It also gave an Activity (LOX IMVI) of 94.24%, an Activity (COLO 205) of 103.52% and an Activity (SNB-19) of 104.56%. For the same compound, the Activity (DU-145) was 103.51%, the Activity (SN12C) was 92.48% and the Activity [8] was 94.53%. For the same compound, the Activity (SF-295) was 86.95%, the Activity [9] was 86.24% and the Activity (MCF7) was 80.56%. It also gave an Activity (BT-549) of 102.4%, an Activity [10] of 77.49% and an Activity (NCI-H522) of 80.08%. For the same compound, the Activity (KM12) was 104.72% and the Activity (MOLT-4) was 90.09%.
Work on `CN(C)CCCSc1nc2cc3c(cc2o1)C(=O)c1ccccc1C3=O` yielded an Activity (RXF 393) of 83.05%, an Activity (NCI-H23) of 97.69% and an Activity (CAKI-1) of 73.88%. For the same compound, the Activity (HT-29) was 64.03%, the Activity (T47D) was 82.2% and the Activity [1] was 99.82%. It also gave an Activity [2] of 86.43%, an Activity (HL-60(TB)) of 75.05% and an Activity [3] of 90.68%. The Activity [4] was 86%, the Activity [5] was 109.08% and the Activity (SF-268) was 102.39%. For the same compound, the Activity (NCI-H460) was 60.58%, the Activity (U-251) was 87.74% and the Activity (SK-MEL-28) was 108.23%. For the same compound, the Activity (NCI-H226) was 100.17%, the Activity (RPMI-8226) was 84.91% and the Activity (SR) was 28.03%. It also gave an Activity (M14) of 101.41%, an Activity (SK-MEL-5) of 90.17% and an Activity (K562) of 51.17%. For the same compound, the Activity [6] was 91.54%, the Activity (HOP-92) was 34.36% and the Activity (MDA-MB-468) was 88.6%. For the same compound, the Activity (SF-539) was 87.3%, the Activity (HCC 2998) was 100.1% and the Activity (786-0) was 86.09%. The Activity (IGROV-1) was 71.71%, the Activity (MDA-MB-231) was 71.49% and the Activity [7] was 72.26%. The Activity (TK-10) was 73.42%, the Activity (SW-620) was 69.11% and the Activity (A549) was 54.13%. It also gave an Activity (LOX IMVI) of 76.64%, an Activity (COLO 205) of 59.49% and an Activity (SNB-19) of 90.07%. The Activity (DU-145) was 53.81%, the Activity (SN12C) was 88.52% and the Activity [8] was 68.98%. For the same compound, the Activity (SF-295) was 92.69%, the Activity [9] was 77.71% and the Activity (MCF7) was 52.24%. The Activity (BT-549) was 107.23%, the Activity [10] was 59.82% and the Activity (NCI-H522) was 70.64%. It also gave an Activity (KM12) of 82.13% and an Activity (MOLT-4) of 13.77%.
